The values that follow are results of earlier work, collected in patent publication US10611908B2, “Micelles for mucoadhesive drug delivery” (McMaster University, priority 2015, dated 2020).

Molecules are shown by their SMILES.

`C=C(C)C(=O)O` [MAA, methacrylic acid]: the pKa is approximately 4.6.
For the compound `OB(O)c1ccccc1` [PBA, Phenylboronic acid], the pKa is listed as approximately 8.8.
